From patent publication US20240018157A1, “CYCLIC COMPOUNDS AND METHODS OF USING SAME” (Schrödinger, Inc., priority 2019, published 2024)
Where a name gives a salt, the structure may show the parent alone.

What was measured:
[1] = system: IL10 secretion, OCI-LY10 cells; assay: Human IL10 secretion assay, Assay 1 (HTRF); type: cell-based; settings: 24 h incubation, read-out: IL-10 Secretion IC50 [nM] Assay 1
Method: (§1) IL10 is one of the cytokines that are regulated via activation of NF-kB signaling. For example, in ABC-DLBCL cell lines, the activated NF-kB signaling leads to increased IL10 secretion. Inhibition of NF-kB signaling has been shown leading to decreased IL10 secretion.
Assay 1: OCI-LY10 cells were seeded in IMEM supplemented with 20% fetal bovine serum at 3×10^5 cells per well in 96-well round bottom plates (Corning 3799, Corning), treated with 100 nL of 3-fold serial compound dilutions, starting at 10 mM. The final vehicle concentration was 0.1% DMSO in all wells. After 24 h incubation, the cells were transferred to 96-PCR plates (Axygen: PCR-96-FLT-C) and centrifuged, then 16 μL of cell culture media was transferred to HTRF plates and IL10 levels were measured using human IL-10 Assay Kits (Cisbio) using HTRF format. The signals were transformed to percentage of remaining activity by using the high control (HC, median of signal from wells containing cells treated with DMSO) and low control (LC, median of signal from wells with no cells). IC50 values (nM) were determined using 4-parametric curve-fitting and Hill coefficient were obtained using Graph Pad Prism (Graph Pad software, Inc, USA) with non-linear regression analysis.

[2] = system: IL10 secretion, OCI-LY10 cells; assay: Human IL10 secretion assay, Assay 2 (Meso Scale Discovery); type: cell-based; settings: 24 h incubation, MSD, read-out: IL-10 Secretion IC50 [nM] Assay 2
Method: as §1
Assay 2: OCI-LY10 cells were seeded in IMEM supplemented with 20% fetal bovine serum at 4.8×10^5 cells per 160 μL per well in 96-well V-bottom cell culture plates (coming, 3894), treated with 120 nL of 3-fold serial compound dilutions, starting at 4 mM. The final vehicle concentration was 0.075% DMSO in all wells. After a 24 h incubation, human IL-10 pre-coated plates (Meso Scale Discovery) were washed 3 times with PBST, and 50 μL culture medium was aspirated into the MSD plate and incubated at 4° C. overnight. The supernatant was then discarded and the wells were washed 3 times with PBST. SULFO-TAG Anti-human IL-10 Antibody (50×) was diluted 50 fold according to the Meso Scale Protocol, then 25 μL of SULFO-TAG Anti-human IL-10 Antibody (1×) was added. After 2 h of incubation at RT, the supernatant was discarded and the well was washed 3 times with PBST. 2× read buffer was added and the signal was read on an MSD Sector S600. The effect of a particular compound on IL10 secretion is shown relative to the effect of DMSO; set as 100%. IC50 values (nM) were determined using 4-parametric curve-fitting.

[3] = target: full-length MALT1 protein His-MALT1(1-824) (Homo sapiens (Human), UniProt Q9UDY8); assay: MALT1 protease assay, Assay 2 (1 nM MALT1, Ac-LRSR-AMC substrate); type: biochemical; settings: 1 nM MALT1, 50 μM Ac-LRSR-AMC, 2 h pre-incubation, 8 hr incubation at RT
Method: MALT1 protease activity was assessed in an in vitro assay using a tetrapeptide as substrate and full-length MALT1 protein His-MALT1(1-824) purified from baculovirus-infected insect cells.
The final assay buffer includes 1 nM (Assay 2) or 2 nM (Assay 1) of MALT1 full-length protein, 50 μM Ac-LRSR-AMC substrate, 50 mM Tris pH 7.5, 600 mM Sodium Citrate, 1 mM DTT, 1 mM EDTA, and 0.05% BSA in 384-well plate format using black microtiter square well plates (Optiplate 384-F, Perkin Elmer).
Test compounds were dissolved in 100% DMSO at stock of 10 mM, with final DMSO concentration 0.1%. Test compounds were pre-incubated with MALT1 protein for 2 h at room temperature. Substrate was added after the pre-incubation and fluorescence signal was measured using Envision at excitation 355 nm and emission 460 nm after 8 hr incubation at RT.
The fluorescence units were transformed to percentage of remaining activity by using the high control (HC, median of fluorescence signal from wells containing MALT1 protein, substrate, and DMSO) and low control (LC, median of fluorescence signal from wells with substrate only) with the formula below: […]
IC50 and Hill coefficient were obtained using Graph Pad Prism (Graph Pad software, Inc, USA) with non-linear regression analysis.

Sequence of full-length MALT1 protein His-MALT1(1-824) (Q9UDY8 whole entry): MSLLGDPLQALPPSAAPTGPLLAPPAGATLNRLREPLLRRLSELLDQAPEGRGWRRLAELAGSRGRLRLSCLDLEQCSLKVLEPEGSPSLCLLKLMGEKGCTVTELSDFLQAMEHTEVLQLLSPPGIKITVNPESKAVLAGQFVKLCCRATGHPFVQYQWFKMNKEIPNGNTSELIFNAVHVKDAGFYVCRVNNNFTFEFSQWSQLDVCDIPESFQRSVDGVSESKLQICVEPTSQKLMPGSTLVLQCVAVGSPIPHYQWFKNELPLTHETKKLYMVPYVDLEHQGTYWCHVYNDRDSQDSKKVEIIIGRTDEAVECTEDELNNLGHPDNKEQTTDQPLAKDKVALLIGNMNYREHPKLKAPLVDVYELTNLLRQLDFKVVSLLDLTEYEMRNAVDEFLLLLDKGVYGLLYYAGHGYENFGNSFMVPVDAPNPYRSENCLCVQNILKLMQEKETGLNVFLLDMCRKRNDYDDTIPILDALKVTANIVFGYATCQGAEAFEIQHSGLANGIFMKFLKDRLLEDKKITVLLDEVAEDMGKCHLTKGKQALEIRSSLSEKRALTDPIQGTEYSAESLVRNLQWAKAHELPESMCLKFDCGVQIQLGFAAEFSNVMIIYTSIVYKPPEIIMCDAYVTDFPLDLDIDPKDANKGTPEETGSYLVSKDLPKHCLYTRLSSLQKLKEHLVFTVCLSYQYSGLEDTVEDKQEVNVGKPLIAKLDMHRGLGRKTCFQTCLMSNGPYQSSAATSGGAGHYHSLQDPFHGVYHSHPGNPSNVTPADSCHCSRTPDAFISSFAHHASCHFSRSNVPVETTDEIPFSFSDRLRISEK

| IC50 [1] [nM] | IC50 [2] [nM] | IC50 [3] [nM] | Compound |
| --- | --- | --- | --- |
| 10 to 100 | 10 to 100 |  | O=C(Nc1cnc(-n2nccn2)c(Cl)c1)N1CC(O)(C(F)(F)F)c2c1cnc1cc(Cl)nn21 (stereo not shown) [compound 201, 2-chloro-N-(5-chloro-6-(2H-1,2,3-triazol-2-yl)pyridin-3-yl)-8-hydroxy-8-(trifluoromethyl)-7,8-dihydro-6H-pyrazolo[1,5-a]pyrrolo[2,3-e]pyrimidine-6-carboxamide] |
| 10 to 100 |  | 10 to 100 | C[C@H](O)COc1ncc(NC(=O)N2C[C@@](C)(C(F)(F)F)c3c2cnc2cc(Cl)nn32)cc1Cl [compound 73, (R)-2-chloro-N-(5-chloro-6-((S)-2-hydroxypropoxy)pyridin-3-yl)-8-methyl-8-(trifluoromethyl)-7,8-dihydro-6H-pyrazolo[1,5-a]pyrrolo[2,3-e]pyrimidine-6-carboxamide] |
| 100 to 1000 |  | 10 to 100 | C[C@@]1(C(F)(F)F)CN(C(=O)Nc2cnc(C(O)C3CC3)c(Cl)c2)c2cnc3cc(Cl)nn3c21 (stereo partly drawn) [compound 72, (8R)-2-chloro-N-(5-chloro-6-(cyclopropyl(hydroxy)methyl)pyridin-3-yl)-8-methyl-8-(trifluoromethyl)-7,8-dihydro-6H-pyrazolo[1,5-a]pyrrolo[2,3-e]pyrimidine-6-carboxamide] |
| 10 to 100 | 10 to 100 |  | CC(O)c1cnn(-c2ncc(NC(=O)N3C[C@@](C)(C(F)(F)F)c4c3cnc3cc(F)nn43)cc2C(F)F)n1 (stereo partly drawn) [compound 191, (8R)-N-(5-(difluoromethyl)-6-(4-(1-hydroxyethyl)-2H-1,2,3-triazol-2-yl)pyridin-3-yl)-2-fluoro-8-methyl-8-(trifluoromethyl)-7,8-dihydro-6H-pyrazolo[1,5-a]pyrrolo[2,3-e]pyrimidine-6-carboxamide] |
| 10 to 100 | 10 to 100 |  | CCN(C)C(=O)c1ncc(NC(=O)N2C[C@@](C)(C(F)(F)F)c3c2cnc2cc(Cl)nn32)cc1C(F)F [compound 149, (R)-2-chloro-N-(5-(difluoromethyl)-6-(ethyl(methyl)carbamoyl)pyridin-3-yl)-8-methyl-8-(trifluoromethyl)-7,8-dihydro-6H-pyrazolo[1,5-a]pyrrolo[2,3-e]pyrimidine-6-carboxamide] |
| 10 to 100 | 10 to 100 |  | C[C@@]1(C(F)(F)F)CN(C(=O)Nc2cnc(OC(F)F)c(Cl)c2)c2cnc3cc(Cl)nn3c21 [compound 49, (R)-2-chloro-N-(5-chloro-6-(difluoromethoxy)pyridin-3-yl)-8-methyl-8-(trifluoromethyl)-7,8-dihydro-6H-pyrazolo[1,5-a]pyrrolo[2,3-e]pyrimidine-6-carboxamide] |
| 10 to 100 | 10 to 100 |  | C[C@@]1(C(F)(F)F)CN(C(=O)Nc2cnc(-n3nccn3)c(Cl)c2)c2cnc3cc(F)nn3c21 [compound 39, (R)-N-(5-chloro-6-(2H-1,2,3-triazol-2-yl)pyridin-3-yl)-2-fluoro-8-methyl-8-(trifluoromethyl)-7,8-dihydro-6H-pyrazolo[1,5-a]pyrrolo[2,3-e]pyrimidine-6-carboxamide] |
| 100 to 1000 |  | 10 to 100 | C[C@H]1COC(=O)N1c1cc(NC(=O)N2C[C@@](C)(C(F)(F)F)c3c2cnc2cc(Cl)nn32)cc(C(F)(F)F)n1 [compound 84, (R)-2-chloro-8-methyl-N-(2-((S)-4-methyl-2-oxooxazolidin-3-yl)-6-(trifluoromethyl)pyridine-4-yl)-8-(trifluoromethyl)-7,8-dihydro-6H-pyrazolo[1,5-a]pyrrolo[2,3-e]pyrimidine-6-carboxamide] |
| 100 to 1000 |  | 10 to 100 | C[C@@]1(C(F)(F)F)CN(C(=O)Nc2cc(C#N)nc(C(F)(F)F)c2)c2cnc3cc(Cl)nn3c21 [compound 61, (R)-2-chloro-N-(2-cyano-6-(trifluoromethyl)pyridin-4-yl)-8-methyl-8-(trifluoromethyl)-7,8-dihydro-6H-pyrazolo[1,5-a]pyrrolo[2,3-e]pyrimidine-6-carboxamide] |
| 10 to 100 |  | 10 to 100 | CC1(C(F)(F)F)CN(C(=O)Nc2cnc(-n3nccn3)c(Cl)c2)c2cnc3cc(C(F)F)nn3c21 (stereo not shown) [Compound 62] |
| 10 to 100 | 10 to 100 |  | CN(C(=O)c1ncc(NC(=O)N2C[C@@](C)(C(F)(F)F)c3c2cnc2cc(Cl)nn32)cc1C(F)F)C1CC1 [compound 151, (R)-2-chloro-N-(6-(cyclopropyl(methyl)carbamoyl)-5-(difluoromethyl)pyridin-3-yl)-8-methyl-8-(trifluoromethyl)-7,8-dihydro-6H-pyrazolo[1,5-a]pyrrolo[2,3-e]pyrimidine-6-carboxamide] |
| 10 to 100 | 10 to 100 |  | Cc1cc(NC(=O)N2C[C@@](C)(C(F)(F)F)c3c2cnc2cc(F)nn32)cnc1-n1nccn1 [compound 125, (R)-2-fluoro-8-methyl-N-(5-methyl-6-(2H-1,2,3-triazol-2-yl)pyridin-3-yl)-8-(trifluoromethyl)-7,8-dihydro-6H-pyrazolo[1,5-a]pyrrolo[2,3-e]pyrimidine-6-carboxamide] |
| 10 to 100 |  | 10 to 100 | C[C@@]1(C(F)(F)F)CN(C(=O)Nc2cnn(C(F)F)c2)c2cnc3cc(Cl)nn3c21 [compound 64, (R)-2-chloro-N-(1-(difluoromethyl)-1H-pyrazol-4-yl)-8-methyl-8-(trifluoromethyl)-7,8-dihydro-6H-pyrazolo[1,5-a]pyrrolo[2,3-e]pyrimidine-6-carboxamide] |
|  | 10 to 100 |  | C[C@@]1(C(F)(F)F)CN(C(=O)Nc2cnc(-n3nccn3)c(C#N)c2)c2cnc3cc(F)nn3c21 [compound 91, (R)-N-(5-cyano-6-(2H-1,2,3-triazol-2-yl)pyridin-3-yl)-2-fluoro-8-methyl-8-(trifluoromethyl)-7,8-dihydro-6H-pyrazolo[1,5-a]pyrrolo[2,3-e]pyrimidine-6-carboxamide] |
| 10 to 100 | 10 to 100 |  | C[C@@]1(C(F)(F)F)CN(C(=O)Nc2cnc(-n3nccn3)c(C(F)F)c2)c2cnc3cc(Cl)nn3c21 [compound 35, (R)-2-chloro-N-(5-(difluoromethyl)-6-(2H-1,2,3-triazol-2-yl)pyridin-3-yl)-8-methyl-8-(trifluoromethyl)-7,8-dihydro-6H-pyrazolo[1,5-a]pyrrolo[2,3-e]pyrimidine-6-carboxamide] |
| 100 to 1000 |  | 10 to 100 | COc1c(C)cc(NC(=O)N2C[C@@](C)(C(F)(F)F)c3c2cnc2cc(Cl)nn32)nc1O[C@H]1CCNC1 [compound 82, (R)-2-chloro-N-(5-methoxy-4-methyl-6-(((S)-pyrrolidin-3-yl)oxy)pyridin-2-yl)-8-methyl-8-(trifluoromethyl)-7,8-dihydro-6H-pyrazolo[1,5-a]pyrrolo[2,3-e]pyrimidine-6-carboxamide formate] |
|  | 10 to 100 |  | COc1cnn(-c2ncc(NC(=O)N3C[C@@](C)(C(F)(F)F)c4c3cnc3cc(Cl)nn43)cc2Cl)n1 [compound 92, (R)-2-chloro-N-(5-chloro-6(4-methoxy-2H-1,2,3-triazol-2-yl)pyridin-3-yl)-8-methyl-8-(trifluoromethyl)-7,8-dihydro-6H-pyrazolo[1,5-a]pyrrolo[2,3-e]pyrimidine-6-carboxamide] |
| 10 to 100 |  | 10 to 100 | C[C@@]1(C(F)(F)F)CN(C(=O)Nc2cnnc(C(F)(F)F)c2)c2cnc3cc(Cl)nn3c21 [compound 59, (R)-11-chloro-3-methyl-3-(trifluoromethyl)-N-[6-(trifluoromethyl)pyridazin-4-yl]-1,5,8,12-tetrazatricyclo[7.3.0.02,6]dodeca-2(6),7,9,11-tetraene-5-carboxamide] |
